Reference: US20100267561A1, “HERBICIDAL PYRIDAZINONE DERIVATIVES” (priority 2007, published 2010)

Assays:
Assay type in all cases: in vivo
[1] = system: barnyardgrass (Echinochloa crus-galli); assay: Test A pre-/postemergence plant response
Summary of the method: (§1)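 Soil: loam blended with sand. Formulation: non-phytotoxic solvent mixture plus surfactant, applied as preemergence directed soil spray and as postemergence spray. Scoring: visual, 0 no effect to 100 complete control, roughly 10 days post-treatment in greenhouse.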

corn (Zea mays) = assay: Test A pre-/postemergence plant response
Summary of the method: as §1

[2] = system: giant foxtail (Setaria faberi); assay: Test A pre-/postemergence plant response
Summary of the method: as §1

[3] = system: large crabgrass (Digitaria sanguinalis); assay: Test A pre-/postemergence plant response
Summary of the method: as §1

[4] = system: morningglory (Ipomoea coccinea); assay: Test A pre-/postemergence plant response
Summary of the method: as §1

[5] = system: pigweed (Amaranthus retroflexus); assay: Test A pre-/postemergence plant response
Summary of the method: as §1

[6] = system: velvetleaf (Abutilon theophrasti); assay: Test A pre-/postemergence plant response
Summary of the method: as §1

[7] = system: wheat (Triticum aestivum); assay: Test A pre-/postemergence plant response
Summary of the method: as §1

[8] = system: canarygrass (Phalaris minor); assay: Test B postemergence plant response; details: for Canarygrass plant response rating: 8 g ai/ha, postemergence, 0-100 scale; for Plant response rating, Canarygrass: Postemergence
Summary of the method: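 Emerged plants, 1- to 4-leaf stage, treated; greenhouse 13–15 d; eye-scored vs untreated controls (0–100 scale).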

[9] = system: barnyardgrass (Echinochloa crus-galli); assay: Test B flooded paddy test plant response
Summary of the method: (§2)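 Paddy-water application to 2-leaf plants in pots held under 3 cm of flooding; response is a 0–100 visual control rating against controls after 13 to 15 days, and a dash marks a missing result.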

[10] = system: ducksalad (Heteranthera limosa); assay: Test B flooded paddy test plant response
Summary of the method: as §2

rice (Oryza sativa) = assay: Test B flooded paddy test plant response
Summary of the method: as §2

[11] = system: umbrella sedge (Cyperus difformis); assay: Test B flooded paddy test plant response
Summary of the method: as §2

[12] = Postemergence, 31 g ai/ha, 0 to 100 scale, 0 no effect, 100 complete control
[13] = Postemergence, 125 g ai/ha, 0 to 100 scale, 0 no effect, 100 complete control
[14] = Preemergence, 31 g ai/ha, 0 to 100 scale, 0 is no effect, 100 is complete control
[15] = Preemergence, 125 g ai/ha, 0 to 100 scale (0 no effect, 100 complete control)
[16] = 62 g ai/ha, scale 0 to 100, 0 no effect, 100 complete control
[17] = Flood (flooded paddy test), 62 g ai/ha, scale 0 to 100, 0 no effect, 100 complete control
[18] = Flood (flooded paddy test), 250 g ai/ha, scale 0 to 100, 0 no effect, 100 complete control
[19] = 31 g ai/ha, scale 0 to 100, 0 no effect, 100 complete control
[20] = Flood (flooded paddy test), 125 g ai/ha, scale 0 to 100, 0 no effect, 100 complete control
[21] = Flood, 31 g ai/ha, scale 0 to 100
[22] = Postemergence, 500 g ai/ha, 0 to 100 scale, 0 no effect, 100 complete control
[23] = Preemergence, 500 g ai/ha, 0 to 100 scale (0 no effect, 100 complete control)

Cc1nn(C)c(=O)c(-n2nc(-c3ccc(Cl)cc3)cc2Cl)c1O [Compound 59]
Plant response rating, Barnyardgrass [1, 12]: 90 | Plant response rating, Barnyardgrass [1, 13]: 100 | Plant response rating, Barnyardgrass [1, 14]: 90 | Plant response rating, Barnyardgrass [1, 15]: 100 | Plant response rating, Corn (corn (Zea mays); [12]): 30 | Plant response rating, Corn (corn (Zea mays); [13]): 70 | Plant response rating, Corn (corn (Zea mays); [14]): 0 | Plant response rating, Corn (corn (Zea mays); [15]): 60 | Plant response rating, Foxtail, Giant [2, 12]: 90 | Plant response rating, Foxtail, Giant [2, 13]: 90 | Plant response rating, Foxtail, Giant [2, 14]: 70 | Plant response rating, Foxtail, Giant [2, 15]: 90 | Plant response rating, Crabgrass, Large [3, 12]: 50 | Plant response rating, Crabgrass, Large [3, 13]: 90 | Plant response rating, Crabgrass, Large [3, 14]: 20 | Plant response rating, Crabgrass, Large [3, 15]: 50 | Plant response rating, Morningglory [4, 12]: 0 | Plant response rating, Morningglory [4, 13]: 0 | Plant response rating, Morningglory [4, 14]: 0 | Plant response rating, Morningglory [4, 15]: 0 | Plant response rating, Pigweed [5, 12]: 0 | Plant response rating, Pigweed [5, 13]: 0 | Plant response rating, Pigweed [5, 14]: 0 | Plant response rating, Pigweed [5, 15]: 0 | Plant response rating, Velvetleaf [6, 12]: 0 | Plant response rating, Velvetleaf [6, 13]: 0 | Plant response rating, Velvetleaf [6, 14]: 0 | Plant response rating, Velvetleaf [6, 15]: 0 | Plant response rating, Wheat [7, 12]: 0 | Plant response rating, Wheat [7, 13]: 60 | Plant response rating, Wheat [7, 14]: 0 | Plant response rating, Wheat [7, 15]: 50 | Canarygrass plant response rating [8]: 0 | Plant response rating, Canarygrass ([8]; 16 g ai/ha, scale 0 to 100): 40 | Plant response rating, Canarygrass ([8]; 31 g ai/ha, scale 0 to 100): 55 | Plant response rating, Canarygrass [8, 16]: 70 | Plant response rating, Barnyardgrass [9, 17]: 0 | Plant response rating, Barnyardgrass [9, 18]: 50 | Plant response rating, Ducksalad [10, 17]: 0 | Plant response rating, Ducksalad [10, 18]: 20 | Plant response rating, Rice (rice (Oryza sativa); [17]): 10 | Plant response rating, Rice (rice (Oryza sativa); [18]): 25 | Plant response rating, Sedge, Umbrella [11, 17]: 0 | Plant response rating, Sedge, Umbrella [11, 18]: 30

Cc1cc(-c2ccc(Cl)cc2)nn1-c1c(OC(=O)CC(C)C)cnn(C)c1=O [Compound 37]
Plant response rating, Barnyardgrass [1, 12]: 90 | Plant response rating, Barnyardgrass [1, 13]: 100 | Plant response rating, Barnyardgrass [1, 14]: 90 | Plant response rating, Barnyardgrass [1, 15]: 100 | Plant response rating, Corn (corn (Zea mays); [12]): 60 | Plant response rating, Corn (corn (Zea mays); [13]): 100 | Plant response rating, Corn (corn (Zea mays); [14]): 30 | Plant response rating, Corn (corn (Zea mays); [15]): 90 | Plant response rating, Foxtail, Giant [2, 12]: 80 | Plant response rating, Foxtail, Giant [2, 13]: 100 | Plant response rating, Foxtail, Giant [2, 14]: 100 | Plant response rating, Foxtail, Giant [2, 15]: 100 | Plant response rating, Crabgrass, Large [3, 12]: 50 | Plant response rating, Crabgrass, Large [3, 13]: 90 | Plant response rating, Crabgrass, Large [3, 14]: 80 | Plant response rating, Crabgrass, Large [3, 15]: 100 | Plant response rating, Morningglory [4, 12]: 0 | Plant response rating, Morningglory [4, 13]: 0 | Plant response rating, Morningglory [4, 14]: 0 | Plant response rating, Morningglory [4, 15]: 0 | Plant response rating, Pigweed [5, 12]: 0 | Plant response rating, Pigweed [5, 13]: 0 | Plant response rating, Pigweed [5, 14]: 0 | Plant response rating, Pigweed [5, 15]: 0 | Plant response rating, Velvetleaf [6, 12]: 0 | Plant response rating, Velvetleaf [6, 13]: 0 | Plant response rating, Velvetleaf [6, 14]: 0 | Plant response rating, Velvetleaf [6, 15]: 0 | Plant response rating, Wheat [7, 12]: 20 | Plant response rating, Wheat [7, 13]: 70 | Plant response rating, Wheat [7, 14]: 30 | Plant response rating, Wheat [7, 15]: 90 | Canarygrass plant response rating [8]: 0 | Plant response rating, Canarygrass ([8]; 16 g ai/ha, scale 0 to 100): 10 | Plant response rating, Canarygrass [8, 19]: 10 | Plant response rating, Canarygrass [8, 16]: 40 | Plant response rating, Barnyardgrass [9, 17]: 60 | Plant response rating, Barnyardgrass [9, 20]: 100 | Plant response rating, Barnyardgrass [9, 18]: 100 | Plant response rating, Barnyardgrass [9, 21]: 30 | Plant response rating, Ducksalad [10, 17]: 70 | Plant response rating, Ducksalad [10, 20]: 70 | Plant response rating, Ducksalad [10, 18]: 75 | Plant response rating, Rice (rice (Oryza sativa); [17]): 70 | Plant response rating, Rice (rice (Oryza sativa); [20]): 80 | Plant response rating, Rice (rice (Oryza sativa); [18]): 90 | Plant response rating, Rice (rice (Oryza sativa); [21]): 0 | Plant response rating, Sedge, Umbrella [11, 17]: 0 | Plant response rating, Sedge, Umbrella [11, 20]: 0 | Plant response rating, Sedge, Umbrella [11, 18]: 60

Cc1cc(-c2ccc(Cl)cc2)nn1-c1c(OC(=O)c2cccs2)cnn(C)c1=O [Compound 52]
Plant response rating, Barnyardgrass [1, 12]: 80 | Plant response rating, Barnyardgrass [1, 13]: 100 | Plant response rating, Barnyardgrass [1, 14]: 70 | Plant response rating, Barnyardgrass [1, 15]: 100 | Plant response rating, Corn (corn (Zea mays); [12]): 30 | Plant response rating, Corn (corn (Zea mays); [13]): 100 | Plant response rating, Corn (corn (Zea mays); [14]): 0 | Plant response rating, Corn (corn (Zea mays); [15]): 70 | Plant response rating, Foxtail, Giant [2, 12]: 80 | Plant response rating, Foxtail, Giant [2, 13]: 90 | Plant response rating, Foxtail, Giant [2, 14]: 100 | Plant response rating, Foxtail, Giant [2, 15]: 100 | Plant response rating, Crabgrass, Large [3, 12]: 60 | Plant response rating, Crabgrass, Large [3, 13]: 90 | Plant response rating, Crabgrass, Large [3, 14]: 30 | Plant response rating, Crabgrass, Large [3, 15]: 100 | Plant response rating, Morningglory [4, 12]: 0 | Plant response rating, Morningglory [4, 13]: 0 | Plant response rating, Morningglory [4, 14]: 0 | Plant response rating, Morningglory [4, 15]: 20 | Plant response rating, Pigweed [5, 12]: 0 | Plant response rating, Pigweed [5, 13]: 0 | Plant response rating, Pigweed [5, 14]: 0 | Plant response rating, Pigweed [5, 15]: 0 | Plant response rating, Velvetleaf [6, 12]: 0 | Plant response rating, Velvetleaf [6, 13]: 20 | Plant response rating, Velvetleaf [6, 15]: 0 | Plant response rating, Wheat [7, 12]: 30 | Plant response rating, Wheat [7, 13]: 60 | Plant response rating, Wheat [7, 14]: 10 | Plant response rating, Wheat [7, 15]: 80 | Canarygrass plant response rating [8]: 0 | Plant response rating, Canarygrass ([8]; 16 g ai/ha, scale 0 to 100): 0 | Plant response rating, Canarygrass ([8]; 31 g ai/ha, scale 0 to 100): 0 | Plant response rating, Canarygrass [8, 16]: 5 | Plant response rating, Barnyardgrass [9, 17]: 15 | Plant response rating, Barnyardgrass [9, 18]: 75 | Plant response rating, Ducksalad [10, 17]: 0 | Plant response rating, Ducksalad [10, 18]: 0 | Plant response rating, Rice (rice (Oryza sativa); [17]): 10 | Plant response rating, Rice (rice (Oryza sativa); [18]): 60 | Plant response rating, Sedge, Umbrella [11, 17]: 0 | Plant response rating, Sedge, Umbrella [11, 18]: 0

CCc1cc(-c2ccc(C(F)(F)F)cc2)nn1-c1c(OC(=O)OC(C)C)cnn(C)c1=O [Compound 12]
Plant response rating, Barnyardgrass [1, 13]: 90 | Plant response rating, Barnyardgrass [1, 22]: 100 | Plant response rating, Barnyardgrass [1, 15]: 100 | Plant response rating, Barnyardgrass [1, 23]: 100 | Plant response rating, Corn (corn (Zea mays); [13]): 90 | Plant response rating, Corn (corn (Zea mays); [22]): 90 | Plant response rating, Corn (corn (Zea mays); [15]): 80 | Plant response rating, Corn (corn (Zea mays); [23]): 90 | Plant response rating, Foxtail, Giant [2, 13]: 80 | Plant response rating, Foxtail, Giant [2, 22]: 100 | Plant response rating, Foxtail, Giant [2, 15]: 100 | Plant response rating, Foxtail, Giant [2, 23]: 100 | Plant response rating, Crabgrass, Large [3, 13]: 90 | Plant response rating, Crabgrass, Large [3, 22]: 100 | Plant response rating, Crabgrass, Large [3, 15]: 100 | Plant response rating, Crabgrass, Large [3, 23]: 100 | Plant response rating, Morningglory [4, 13]: 0 | Plant response rating, Morningglory [4, 22]: 0 | Plant response rating, Morningglory [4, 15]: 0 | Plant response rating, Morningglory [4, 23]: 0 | Plant response rating, Pigweed [5, 13]: 0 | Plant response rating, Pigweed [5, 22]: 0 | Plant response rating, Pigweed [5, 15]: 0 | Plant response rating, Pigweed [5, 23]: 0 | Plant response rating, Velvetleaf [6, 13]: 0 | Plant response rating, Velvetleaf [6, 22]: 0 | Plant response rating, Velvetleaf [6, 15]: 0 | Plant response rating, Velvetleaf [6, 23]: 0 | Plant response rating, Wheat [7, 13]: 70 | Plant response rating, Wheat [7, 22]: 90 | Plant response rating, Wheat [7, 15]: 90 | Plant response rating, Wheat [7, 23]: 100 | Plant response rating, Canarygrass ([8]; 16 g ai/ha, scale 0 to 100): 100 | Plant response rating, Canarygrass [8, 19]: 100 | Plant response rating, Canarygrass ([8]; 62 g ai/ha, scale 0 to 100): 100 | Plant response rating, Canarygrass ([8]; 125 g ai/ha, scale 0 to 100): 100 | Plant response rating, Barnyardgrass [9, 17]: 30 | Plant response rating, Barnyardgrass [9, 20]: 60 | Plant response rating, Barnyardgrass [9, 18]: 80 | Plant response rating, Barnyardgrass [9, 21]: 0 | Plant response rating, Ducksalad [10, 17]: 0 | Plant response rating, Ducksalad [10, 20]: 40 | Plant response rating, Ducksalad [10, 18]: 50 | Plant response rating, Ducksalad [10, 21]: 0 | Plant response rating, Rice (rice (Oryza sativa); [17]): 20 | Plant response rating, Rice (rice (Oryza sativa); [20]): 70 | Plant response rating, Rice (rice (Oryza sativa); [18]): 80 | Plant response rating, Rice (rice (Oryza sativa); [21]): 0 | Plant response rating, Sedge, Umbrella [11, 17]: 40 | Plant response rating, Sedge, Umbrella [11, 20]: 60 | Plant response rating, Sedge, Umbrella [11, 18]: 60 | Plant response rating, Sedge, Umbrella [11, 21]: 0
